How the values were obtained:
[1] = target: T1, panel of ninety-seven kinases (Homo sapiens, UniProt P22607); assay: DiscoverX KinomeScreen competition binding assay (kinase selectivity panel); settings: FGFR3; screened at 3000 nM
T1 construct: purchased DiscoverX; host or cells: E. coli (BL21-derived, T7 phage display) or HEK-293
How it was run: (§1)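 Kinases on T7 phage (BL21-derived E. coli host) or DNA-tagged from HEK-293 cells compete between compound and a bead-immobilized biotinylated ligand. Captured kinase is eluted and quantified by qPCR. Compound is tested at 3000 nM (3 μM); binding is reported as % Ctrl, with DMSO as 100% and control compound as 0%.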

[2] = target: T2, panel of ninety-seven kinases (Homo sapiens, UniProt Q9HBH9); assay: as above; settings: MKNK2; screened at 3000 nM
T2 construct: purchased DiscoverX; host or cells: E. coli (BL21-derived, T7 phage display) or HEK-293
How it was run: as §1

[3] = target: T3, panel of ninety-seven kinases (Homo sapiens, UniProt P45984); assay: as above; settings: MAPK9; screened at 3000 nM
T3 construct: purchased DiscoverX; host or cells: E. coli (BL21-derived, T7 phage display) or HEK-293
How it was run: as §1

[4] = target: T4, panel of ninety-seven kinases (Homo sapiens, UniProt Q13153); assay: as above; settings: PAK1; screened at 3000 nM
T4 construct: purchased DiscoverX; host or cells: E. coli (BL21-derived, T7 phage display) or HEK-293
How it was run: as §1

[5] = target: T5, panel of ninety-seven kinases (Homo sapiens, UniProt P48736); assay: as above; settings: PIK3CG; screened at 3000 nM
T5 construct: purchased DiscoverX; host or cells: E. coli (BL21-derived, T7 phage display) or HEK-293
How it was run: as §1

[6] = target: T6, panel of ninety-seven kinases (Homo sapiens, UniProt Q02750); assay: as above; settings: MAP2K1; screened at 3000 nM
T6 construct: purchased DiscoverX; host or cells: E. coli (BL21-derived, T7 phage display) or HEK-293
How it was run: as §1

[7] = target: T7, panel of ninety-seven kinases (Homo sapiens, UniProt Q00526); assay: as above; settings: CDK3; screened at 3000 nM
T7 construct: purchased DiscoverX; host or cells: E. coli (BL21-derived, T7 phage display) or HEK-293
How it was run: as §1

[8] = target: T8, panel of ninety-seven kinases (Homo sapiens, UniProt P49137); assay: as above; settings: MAPKAPK2; screened at 3000 nM
T8 construct: purchased DiscoverX; host or cells: E. coli (BL21-derived, T7 phage display) or HEK-293
How it was run: as §1

[9] = target: T9, panel of ninety-seven kinases (Homo sapiens, UniProt P29317); assay: as above; settings: EPHA2; screened at 3000 nM
T9 construct: purchased DiscoverX; host or cells: E. coli (BL21-derived, T7 phage display) or HEK-293
How it was run: as §1

[10] = target: T10, panel of ninety-seven kinases (Homo sapiens, UniProt Q9Y6R4); assay: as above; settings: MAP3K4; screened at 3000 nM
T10 construct: purchased DiscoverX; host or cells: E. coli (BL21-derived, T7 phage display) or HEK-293
How it was run: as §1

[11] = test system: HeLa cells engineered to inducibly express oncogenic KRasG12V; assay: Wild-type versus KRAS HeLa cell viability (Cell Titre Blue); type: cell-based; settings: Homo sapiens, KRAS G12V transgene, 72 hours
Method: (§2) Thus, atropisomer A-2 was tested on HeLa cells engineered to inducibly express wild-type or oncogenic […] transgenes using the FLP-in/T-Rex system (Invitrogen). Cells were plated, and then treated with or without doxycycline to induce transgene expression, and then treated with serially-diluted atropisomer A-2. After 72 hours of incubation, cell viability was assessed using the Cell Titre Blue reagent (Promega) and a BMG Pherastar plate reader. The effect of PBD inhibition on cell viability with either wild-type or oncogenic G12V KRAS was assessed using GraphPad Prism.

[12] = test system: HeLa cells engineered to inducibly express wild-type KRAS; assay: as above; type: cell-based; settings: Homo sapiens, wild-type KRAS transgene, 72 hours, read-out: WT GI50
Method: as §2

U87MG cells = assay: Mitotic phenotype classification; type: cell-based; settings: 0.03 μM, 24 hours
Method: Distinct mitotic phenotypes are induced following inhibition of PLK1 and PLK4 in cells. […] Centriole assembly is controlled by PLK4, with inhibitors inducing a multipolar spindle phenotype due to centrosome defects which results in abnormal cyokinesis (Wong et al., 2015. Science 348(6239); 1155-1160). Cells were plated at 10 000/well in 96-well plates and incubated overnight. The following day atropisomer A-2 stocks in DMSO were diluted in medium then added to cells with a maximum final DMSO concentration on cells of 0.2%. Cells were incubated with the compound for 24 hours then fixed in 3.7% formaldeyde. Cells were permeabilised with 0.1% Triton X-100 then incubated with anti-phospho-histone H3 (Ser10) antibody (Abcam ab5176). The cells were washed with PBS then incubated with AlexaFluor 488 labelled goat anti-rabbit IgG (Invitrogen A11034) in the presence of 4 ug/ml Hoechst 33342 (Invitrogen H3570). Cells were washed in PBS then imaged on an Arrayscan VTi HCS instrument (Thermo Fisher) using the Target Activation V4 Bioapplication. A user-defined threshold was applied to identify mitotic cells based on the intensity of phospho-histone H3 staining. In a separate study, following the above protocol but using single compound concentrations of 0.03 μM for each of atropisomer A-1 and atropisomer A-2, the frequency of observed mitotic phenotypes in U87MG cells was manually assessed and classified into the following phenotypes: non-congressed chromosomes, multipolar spindles/abnormal cytokinesis, monopolar spindles, normal prometaphase, normal metaphase for each of A-1 and A-2.

T6 sequence (Q02750 whole entry): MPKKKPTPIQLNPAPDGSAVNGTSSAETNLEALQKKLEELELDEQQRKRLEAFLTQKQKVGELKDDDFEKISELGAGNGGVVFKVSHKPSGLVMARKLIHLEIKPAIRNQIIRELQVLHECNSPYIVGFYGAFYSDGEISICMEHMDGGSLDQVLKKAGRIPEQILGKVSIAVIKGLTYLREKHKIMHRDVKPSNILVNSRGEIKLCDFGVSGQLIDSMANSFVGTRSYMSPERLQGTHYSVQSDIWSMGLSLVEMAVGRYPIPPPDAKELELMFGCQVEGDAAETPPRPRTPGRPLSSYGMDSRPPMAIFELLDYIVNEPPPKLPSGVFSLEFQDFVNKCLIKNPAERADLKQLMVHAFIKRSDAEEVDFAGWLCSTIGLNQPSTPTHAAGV
T2 sequence (Q9HBH9 whole entry): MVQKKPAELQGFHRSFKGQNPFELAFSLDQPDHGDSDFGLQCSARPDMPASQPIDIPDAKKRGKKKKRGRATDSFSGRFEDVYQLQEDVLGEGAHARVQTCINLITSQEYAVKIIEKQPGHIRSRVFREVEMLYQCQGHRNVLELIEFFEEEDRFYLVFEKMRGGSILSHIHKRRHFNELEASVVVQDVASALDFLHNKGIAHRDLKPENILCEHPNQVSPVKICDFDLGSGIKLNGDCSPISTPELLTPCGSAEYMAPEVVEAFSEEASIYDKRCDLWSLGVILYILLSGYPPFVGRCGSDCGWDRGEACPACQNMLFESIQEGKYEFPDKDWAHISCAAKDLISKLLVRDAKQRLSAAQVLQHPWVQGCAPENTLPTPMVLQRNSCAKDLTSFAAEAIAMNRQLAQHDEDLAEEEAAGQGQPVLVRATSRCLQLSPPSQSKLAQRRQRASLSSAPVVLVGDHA
T8 sequence (P49137 whole entry): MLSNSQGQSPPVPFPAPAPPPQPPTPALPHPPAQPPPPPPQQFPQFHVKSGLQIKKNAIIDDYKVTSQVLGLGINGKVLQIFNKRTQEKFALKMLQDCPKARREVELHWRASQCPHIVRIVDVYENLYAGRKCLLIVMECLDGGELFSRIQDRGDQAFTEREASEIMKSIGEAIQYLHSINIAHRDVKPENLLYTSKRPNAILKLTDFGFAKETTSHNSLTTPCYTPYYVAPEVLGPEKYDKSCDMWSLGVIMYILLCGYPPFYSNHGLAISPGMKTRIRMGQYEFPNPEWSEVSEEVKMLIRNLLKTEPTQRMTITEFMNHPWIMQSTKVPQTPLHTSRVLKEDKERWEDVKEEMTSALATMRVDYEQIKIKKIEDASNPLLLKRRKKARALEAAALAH
T4 sequence (Q13153 whole entry): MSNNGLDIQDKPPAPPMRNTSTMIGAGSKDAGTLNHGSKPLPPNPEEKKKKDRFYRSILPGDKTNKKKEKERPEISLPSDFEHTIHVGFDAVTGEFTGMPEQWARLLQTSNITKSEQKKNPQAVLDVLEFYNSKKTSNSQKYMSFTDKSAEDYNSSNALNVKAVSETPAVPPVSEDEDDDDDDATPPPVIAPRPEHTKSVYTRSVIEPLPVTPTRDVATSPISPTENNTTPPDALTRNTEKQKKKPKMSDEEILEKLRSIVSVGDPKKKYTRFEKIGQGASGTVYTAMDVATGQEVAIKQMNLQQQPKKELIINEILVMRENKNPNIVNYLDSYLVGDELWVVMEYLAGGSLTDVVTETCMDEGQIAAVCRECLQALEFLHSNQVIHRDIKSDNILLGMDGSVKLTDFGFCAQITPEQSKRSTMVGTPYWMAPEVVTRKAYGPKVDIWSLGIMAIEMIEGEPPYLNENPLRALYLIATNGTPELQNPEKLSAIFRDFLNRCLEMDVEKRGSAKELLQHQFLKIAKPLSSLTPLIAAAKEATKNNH
T9 sequence (P29317 24-976): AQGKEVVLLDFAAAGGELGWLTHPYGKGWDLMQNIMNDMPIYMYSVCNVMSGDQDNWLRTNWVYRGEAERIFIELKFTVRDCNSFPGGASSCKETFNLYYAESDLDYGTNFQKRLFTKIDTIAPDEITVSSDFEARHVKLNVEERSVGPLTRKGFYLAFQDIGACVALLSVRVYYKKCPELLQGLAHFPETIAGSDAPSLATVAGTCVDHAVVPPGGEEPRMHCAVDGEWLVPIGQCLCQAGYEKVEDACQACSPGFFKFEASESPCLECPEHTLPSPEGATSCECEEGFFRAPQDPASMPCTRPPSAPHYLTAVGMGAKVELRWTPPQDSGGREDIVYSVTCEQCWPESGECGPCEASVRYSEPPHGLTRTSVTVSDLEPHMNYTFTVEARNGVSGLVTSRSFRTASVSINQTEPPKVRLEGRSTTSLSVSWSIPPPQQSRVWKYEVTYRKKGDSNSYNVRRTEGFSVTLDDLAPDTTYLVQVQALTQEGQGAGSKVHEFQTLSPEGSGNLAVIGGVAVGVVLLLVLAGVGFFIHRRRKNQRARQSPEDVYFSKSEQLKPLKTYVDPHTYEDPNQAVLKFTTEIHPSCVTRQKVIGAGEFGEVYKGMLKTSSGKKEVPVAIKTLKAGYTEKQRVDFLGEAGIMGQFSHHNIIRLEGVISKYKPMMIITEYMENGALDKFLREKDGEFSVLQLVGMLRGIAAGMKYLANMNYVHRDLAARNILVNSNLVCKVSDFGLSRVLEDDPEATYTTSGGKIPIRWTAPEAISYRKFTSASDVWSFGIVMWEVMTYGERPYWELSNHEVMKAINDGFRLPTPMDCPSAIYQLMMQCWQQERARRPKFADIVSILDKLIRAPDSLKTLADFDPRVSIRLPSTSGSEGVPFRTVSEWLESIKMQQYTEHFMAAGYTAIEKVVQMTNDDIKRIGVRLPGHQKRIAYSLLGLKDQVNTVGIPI
T3 sequence (P45984 whole entry): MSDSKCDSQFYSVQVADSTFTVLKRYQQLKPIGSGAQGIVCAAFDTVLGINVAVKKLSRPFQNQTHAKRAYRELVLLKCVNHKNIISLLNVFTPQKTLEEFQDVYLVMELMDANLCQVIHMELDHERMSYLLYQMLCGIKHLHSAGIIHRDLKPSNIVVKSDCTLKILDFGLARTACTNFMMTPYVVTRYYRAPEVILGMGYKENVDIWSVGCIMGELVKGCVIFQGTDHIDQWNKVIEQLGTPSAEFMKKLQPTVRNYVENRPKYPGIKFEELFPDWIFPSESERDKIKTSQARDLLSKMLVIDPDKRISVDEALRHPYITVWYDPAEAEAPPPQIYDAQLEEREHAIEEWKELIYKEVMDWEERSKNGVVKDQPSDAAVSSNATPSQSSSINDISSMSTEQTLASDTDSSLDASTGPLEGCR
T5 sequence (P48736 whole entry): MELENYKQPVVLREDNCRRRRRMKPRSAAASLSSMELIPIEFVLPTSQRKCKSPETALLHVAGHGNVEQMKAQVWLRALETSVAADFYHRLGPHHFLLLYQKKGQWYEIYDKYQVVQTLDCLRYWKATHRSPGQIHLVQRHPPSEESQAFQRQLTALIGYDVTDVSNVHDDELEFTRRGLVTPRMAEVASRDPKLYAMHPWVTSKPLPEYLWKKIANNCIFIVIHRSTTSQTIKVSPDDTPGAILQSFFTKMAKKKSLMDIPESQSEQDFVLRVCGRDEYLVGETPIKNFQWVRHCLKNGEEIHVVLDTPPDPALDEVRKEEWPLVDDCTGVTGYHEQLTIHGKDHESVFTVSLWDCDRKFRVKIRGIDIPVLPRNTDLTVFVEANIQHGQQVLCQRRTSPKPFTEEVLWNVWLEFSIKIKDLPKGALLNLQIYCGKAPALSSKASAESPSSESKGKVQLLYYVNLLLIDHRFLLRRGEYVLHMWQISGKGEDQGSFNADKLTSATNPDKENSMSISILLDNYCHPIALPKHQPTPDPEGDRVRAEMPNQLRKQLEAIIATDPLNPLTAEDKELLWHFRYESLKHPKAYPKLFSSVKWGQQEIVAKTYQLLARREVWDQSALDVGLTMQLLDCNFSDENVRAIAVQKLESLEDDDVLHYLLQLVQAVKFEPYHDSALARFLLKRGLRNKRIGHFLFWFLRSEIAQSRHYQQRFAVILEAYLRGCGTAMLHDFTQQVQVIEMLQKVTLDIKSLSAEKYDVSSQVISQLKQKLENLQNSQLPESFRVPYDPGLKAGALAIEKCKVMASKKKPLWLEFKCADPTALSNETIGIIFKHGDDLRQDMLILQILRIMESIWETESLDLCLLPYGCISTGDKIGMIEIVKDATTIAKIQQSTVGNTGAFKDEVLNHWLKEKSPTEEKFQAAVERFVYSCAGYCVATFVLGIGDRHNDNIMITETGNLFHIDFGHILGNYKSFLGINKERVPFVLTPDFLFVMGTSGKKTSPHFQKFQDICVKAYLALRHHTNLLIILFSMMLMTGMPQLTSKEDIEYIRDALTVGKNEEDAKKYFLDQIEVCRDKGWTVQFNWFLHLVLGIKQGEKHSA
T7 sequence (Q00526 whole entry): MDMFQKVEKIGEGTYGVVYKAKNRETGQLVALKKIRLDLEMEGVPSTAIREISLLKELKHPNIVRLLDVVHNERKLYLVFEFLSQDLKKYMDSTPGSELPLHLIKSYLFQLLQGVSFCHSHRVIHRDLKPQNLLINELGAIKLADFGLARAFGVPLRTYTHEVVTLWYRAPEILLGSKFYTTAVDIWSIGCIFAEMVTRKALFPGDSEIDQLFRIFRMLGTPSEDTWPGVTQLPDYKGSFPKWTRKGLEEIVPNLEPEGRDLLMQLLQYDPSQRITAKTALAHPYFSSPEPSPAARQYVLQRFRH

| % Ctrl @ 3 μM [1] [% Ctrl] | % Ctrl @ 3 μM [2] [% Ctrl] | % Ctrl @ 3 μM [3] [% Ctrl] | % Ctrl @ 3 μM [4] [% Ctrl] | % Ctrl @ 3 μM [5] [% Ctrl] | % Ctrl @ 3 μM [6] [% Ctrl] | % Ctrl @ 3 μM [7] [% Ctrl] | % Ctrl @ 3 μM [8] [% Ctrl] | % Ctrl @ 3 μM [9] [% Ctrl] | % Ctrl @ 3 μM [10] [% Ctrl] | GI50 [11] [nM] | GI50 [12] [nM] | Compound | cells with abnormal cytokinesis (U87MG cells) [%] | cells with non-congressed chromosomes (U87MG cells) | cells with normal mitotic phenotype (U87MG cells) [%] |
| --- | --- | --- | --- | --- | --- | --- | --- | --- | --- | --- | --- | --- | --- | --- | --- |
| 92 | 85 | 80 | 87 | 100 | 84 | 100 | 75 | 100 | 93 | 2.08 | 3.01 | CN(C)CCNC(=O)c1ccc(-c2ccc(-c3ccc(Cl)cc3)n2-c2ccccc2C(F)(F)F)cc1 (single isomer, unassigned) [Atropisomer A-2] |  |  |  |
|  |  |  |  |  |  |  |  |  |  |  |  | CN(C)CCNC(=O)c1ccc(-c2ccc(-c3ccc(Cl)cc3)n2-c2ccccc2C(F)(F)F)cc1 (single isomer, unassigned; atropisomer a) [Atropisomer A-1] | 24 | No evidence | 76 |

From patent US12637424B2, “Pharmaceutical salt of an arylpyrrole derivative” (SENTINEL ONCOLOGY LIMITED, priority 2020, dated 2026)
